Reference: patent US20230085307A1, “PYRIDAZINONE COMPOUND AND HERBICIDE” (NISSAN CHEMICAL CORPORATION, priority 2019, published 2023)

What was measured:
green foxtail [1] = assay: Test Example 4: herbicidal effect by soil treatment (Table 19, symbol G); assay type: in vivo, green foxtail (Setaria viridis); settings: amount of applied herbicide 320 g/ha
Procedure, shortened: (§1)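 Three weeks of greenhouse growth at 25° C. to 30° C. followed a uniform surface spray of water-diluted emulsion at a predetermined herbicide amount. Seeds had been sown beforehand under about 1.5 cm of sterilized diluvial soil. Grading followed criteria set out in an earlier test.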

late watergrass = assay: Test Example 1: herbicidal activity, application before weed generation under submerged conditions (Table 16, symbol A); assay type: in vivo, late watergrass (Echinochloa oryzicola); settings: amount of applied herbicide 320 g/ha
Procedure, shortened: (§2)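 Alluvial soil was flooded to 4 cm depth, weed seeds were sown mixed and 2.5-leaf rice seedlings were transplanted. On sowing day, the compound's emulsion, diluted in water to a set dose, was applied to the water surface. Plants grew at 25–30 °C and were scored 0–5 after three weeks.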

oval-leafed pondweed = assay: Test Example 1: herbicidal activity, application before weed generation under submerged conditions (Table 16, symbol C); assay type: in vivo, oval-leafed pondweed (Monochoria vaginalis); settings: amount of applied herbicide 320 g/ha
Procedure, shortened: as §2

windgrass [2] = assay: Test Example 4: herbicidal effect by soil treatment (Table 19, symbol L); assay type: in vivo, windgrass (Apera spica-venti); settings: amount of applied herbicide 320 g/ha
Procedure, shortened: as §1

lambsquarters [3] = assay: Test Example 5: herbicidal effect by foliage application, plastic box (Table 20, symbol O); assay type: in vivo, lambsquarters (Chenopodium album); settings: amount of applied herbicide 320 g/ha; foliage application after 14-day growth; evaluated three weeks after application
Procedure, shortened: (§3)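 Plants sown in sterilized diluvial soil and grown 14 days in a greenhouse at 25° C to 30° C, then sprayed on the foliage with the compound's emulsion diluted in water to a predetermined herbicide amount. Injury to weeds and crops scored three weeks after application on a visual rating scale.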

wild oat [4] = assay: Test Example 5: herbicidal effect by foliage application, plastic box (Table 20, symbol I); assay type: in vivo, wild oat (Avena fatua); settings: amount of applied herbicide 320 g/ha; foliage application after 14-day growth; evaluated three weeks after application
Procedure, shortened: as §3

chickweed [5] = assay: Test Example 4: herbicidal effect by soil treatment (Table 19, symbol P); assay type: in vivo, common chickweed (Stellaria media); settings: amount of applied herbicide 320 g/ha
Procedure, shortened: as §1

blackgrass [6] = assay: Test Example 5: herbicidal effect by foliage application, plastic box (Table 20, symbol J); assay type: in vivo, blackgrass (Alopecurus myosuroides); settings: amount of applied herbicide 320 g/ha; foliage application after 14-day growth; evaluated three weeks after application
Procedure, shortened: as §3

southern crabgrass [7] = assay: Test Example 5: herbicidal effect by foliage application, plastic box (Table 20, symbol F); assay type: in vivo, southern crabgrass (Digitaria ciliaris); settings: amount of applied herbicide 320 g/ha; foliage application after 14-day growth; evaluated three weeks after application
Procedure, shortened: as §3

chickweed [8] = assay: Test Example 5: herbicidal effect by foliage application, plastic box (Table 20, symbol P); assay type: in vivo, common chickweed (Stellaria media); settings: amount of applied herbicide 320 g/ha; foliage application after 14-day growth; evaluated three weeks after application
Procedure, shortened: as §3

blackgrass [9] = assay: Test Example 4: herbicidal effect by soil treatment (Table 19, symbol J); assay type: in vivo, blackgrass (Alopecurus myosuroides); settings: amount of applied herbicide 320 g/ha
Procedure, shortened: as §1

lambsquarters [10] = assay: Test Example 4: herbicidal effect by soil treatment (Table 19, symbol O); assay type: in vivo, lambsquarters (Chenopodium album); settings: amount of applied herbicide 320 g/ha
Procedure, shortened: as §1

barnyard grass [11] = assay: Test Example 5: herbicidal effect by foliage application, plastic box (Table 20, symbol H); assay type: in vivo, barnyard grass (Echinochloa crus-galli); settings: amount of applied herbicide 320 g/ha; foliage application after 14-day growth; evaluated three weeks after application
Procedure, shortened: as §3

velvetleaf [12] = assay: Test Example 4: herbicidal effect by soil treatment (Table 19, symbol M); assay type: in vivo, velvetleaf (Abutilon theophrasti); settings: amount of applied herbicide 320 g/ha
Procedure, shortened: as §1

rice flat sedge = assay: Test Example 3: herbicidal effect by foliage application, Wagner pot (Table 18, symbol E); assay type: in vivo, rice flat sedge (Cyperus iria); settings: 320 g/ha
Procedure, shortened: (§4)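 Plants were sown in alluvial soil held under 0.1–0.5 cm standing water and grown 14 days in a greenhouse at 25–30 °C. An emulsifiable formulation, water-diluted to the set dose, was then sprayed onto the foliage, and effects were scored three weeks later using previously defined criteria.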

Italian ryegrass [13] = assay: Test Example 5: herbicidal effect by foliage application, plastic box (Table 20, symbol K); assay type: in vivo, Italian ryegrass (Lolium multiflorum); settings: amount of applied herbicide 320 g/ha; foliage application after 14-day growth; evaluated three weeks after application
Procedure, shortened: as §3

barnyard grass [14] = assay: Test Example 4: herbicidal effect by soil treatment (Table 19, symbol H); assay type: in vivo, barnyard grass (Echinochloa crus-galli); settings: amount of applied herbicide 320 g/ha
Procedure, shortened: as §1

Italian ryegrass [15] = assay: Test Example 4: herbicidal effect by soil treatment (Table 19, symbol K); assay type: in vivo, Italian ryegrass (Lolium multiflorum); settings: amount of applied herbicide 320 g/ha
Procedure, shortened: as §1

green foxtail [16] = assay: Test Example 5: herbicidal effect by foliage application, plastic box (Table 20, symbol G); assay type: in vivo, green foxtail (Setaria viridis); settings: amount of applied herbicide 320 g/ha; foliage application after 14-day growth; evaluated three weeks after application
Procedure, shortened: as §3

barnyard grass [17] = assay: Test Example 3: herbicidal effect by foliage application, Wagner pot (Table 18, symbol H); assay type: in vivo, barnyard grass (Echinochloa crus-galli); settings: 320 g/ha
Procedure, shortened: as §4

windgrass [18] = assay: Test Example 5: herbicidal effect by foliage application, plastic box (Table 20, symbol L); assay type: in vivo, windgrass (Apera spica-venti); settings: amount of applied herbicide 320 g/ha; foliage application after 14-day growth; evaluated three weeks after application
Procedure, shortened: as §3

redroot pigweed [19] = assay: Test Example 4: herbicidal effect by soil treatment (Table 19, symbol N); assay type: in vivo, redroot pigweed (Amaranthus retroflexus); settings: amount of applied herbicide 320 g/ha
Procedure, shortened: as §1

redroot pigweed [20] = assay: Test Example 5: herbicidal effect by foliage application, plastic box (Table 20, symbol N); assay type: in vivo, redroot pigweed (Amaranthus retroflexus); settings: amount of applied herbicide 320 g/ha; foliage application after 14-day growth; evaluated three weeks after application
Procedure, shortened: as §3

persian speedwell = assay: Test Example 5: herbicidal effect by foliage application, plastic box (Table 20, symbol R); assay type: in vivo, Persian speedwell (Veronica persica); settings: amount of applied herbicide 320 g/ha; foliage application after 14-day growth; evaluated three weeks after application
Procedure, shortened: as §3

Chinese sprangletop = assay: Test Example 3: herbicidal effect by foliage application, Wagner pot (Table 18, symbol D); assay type: in vivo, chinese sprangletop (Leptochloa chinensis); settings: 320 g/ha
Procedure, shortened: as §4

wild oat [21] = assay: Test Example 4: herbicidal effect by soil treatment (Table 19, symbol I); assay type: in vivo, wild oat (Avena fatua); settings: amount of applied herbicide 320 g/ha
Procedure, shortened: as §1

southern crabgrass [22] = assay: Test Example 4: herbicidal effect by soil treatment (Table 19, symbol F); assay type: in vivo, southern crabgrass (Digitaria ciliaris); settings: amount of applied herbicide 320 g/ha
Procedure, shortened: as §1

Japanese bulrush = assay: Test Example 1: herbicidal activity, application before weed generation under submerged conditions (Table 16, symbol B); assay type: in vivo, Japanese bulrush (Schoenoplectus juncoides); settings: amount of applied herbicide 320 g/ha
Procedure, shortened: as §2

velvetleaf [23] = assay: Test Example 5: herbicidal effect by foliage application, plastic box (Table 20, symbol M); assay type: in vivo, velvetleaf (Abutilon theophrasti); settings: amount of applied herbicide 320 g/ha; foliage application after 14-day growth; evaluated three weeks after application
Procedure, shortened: as §3

## Cc1nn(C)c(=O)c(-c2c(-c3ccc(F)cc3)sc3c(C)cccc23)c1O [4-100]
Green foxtail [1]
  Herbicidal effect by soil treatment, G: green foxtail: 1 (Herbicidal rate of 5% or more and less than 20%)
Late watergrass
  Herbicidal effect, A: late watergrass: 3 (Herbicidal rate of 40% or more and less than 70%)
oval-leafed pondweed
  Herbicidal effect, C: oval-leafed pondweed: 1 (Herbicidal rate of 5% or more and less than 20%)
Windgrass [2]
  Herbicidal effect by soil treatment, L: windgrass: 0 (Herbicidal rate of 5% or less (almost no effect))
Lambsquarters [3]
  Herbicidal effect by foliage application, O: lambsquarters: 5 (Herbicidal rate of 90% or more (almost completely withered))
Wild oat [4]
  Herbicidal effect by foliage application, I: wild oat: 0 (Herbicidal rate of 5% or less (almost no effect))
Chickweed [5]
  Herbicidal effect by soil treatment, P: chickweed: 3 (Herbicidal rate of 40% or more and less than 70%)
Blackgrass [6]
  Herbicidal effect by foliage application, J: blackgrass: 3 (Herbicidal rate of 40% or more and less than 70%)
Southern crabgrass [7]
  Herbicidal effect by foliage application, F: southern crabgrass: 0 (Herbicidal rate of 5% or less (almost no effect))
Chickweed [8]
  Herbicidal effect by foliage application, P: chickweed: 5 (Herbicidal rate of 90% or more (almost completely withered))
Blackgrass [9]
  Herbicidal effect by soil treatment, J: blackgrass: 0 (Herbicidal rate of 5% or less (almost no effect))
Lambsquarters [10]
  Herbicidal effect by soil treatment, O: lambsquarters: 4 (Herbicidal rate of 70% or more and less than 90%)
Barnyard grass [11]
  Herbicidal effect by foliage application, H: barnyard grass: 0 (Herbicidal rate of 5% or less (almost no effect))
Velvetleaf [12]
  Herbicidal effect by soil treatment, M: velvetleaf: 3 (Herbicidal rate of 40% or more and less than 70%)
Rice flat sedge
  herbicidal effect on rice flat sedge (E): 0 (Herbicidal rate of 5% or less (almost no effect))
Italian ryegrass [13]
  Herbicidal effect by foliage application, K: Italian ryegrass: 3 (Herbicidal rate of 40% or more and less than 70%)
Barnyard grass [14]
  Herbicidal effect by soil treatment, H: barnyard grass: 0 (Herbicidal rate of 5% or less (almost no effect))
Italian ryegrass [15]
  Herbicidal effect by soil treatment, K: Italian ryegrass: 0 (Herbicidal rate of 5% or less (almost no effect))
Green foxtail [16]
  Herbicidal effect by foliage application, G: green foxtail: 0 (Herbicidal rate of 5% or less (almost no effect))
Barnyard grass [17]
  herbicidal effect on barnyard grass (H): 2 (Herbicidal rate of 20% or more and less than 40%)
Windgrass [18]
  Herbicidal effect by foliage application, L: windgrass: 1 (Herbicidal rate of 5% or more and less than 20%)
Redroot pigweed [19]
  Herbicidal effect by soil treatment, N: redroot pigweed: 3 (Herbicidal rate of 40% or more and less than 70%)
Redroot pigweed [20]
  Herbicidal effect by foliage application, N: redroot pigweed: 4 (Herbicidal rate of 70% or more and less than 90%)
Persian speedwell
  Herbicidal effect by foliage application, R: persian speedwell: 5 (Herbicidal rate of 90% or more (almost completely withered))
Chinese sprangletop
  herbicidal effect on Chinese sprangletop (D): 0 (Herbicidal rate of 5% or less (almost no effect))
Wild oat [21]
  Herbicidal effect by soil treatment, I: wild oat: 0 (Herbicidal rate of 5% or less (almost no effect))
Southern crabgrass [22]
  Herbicidal effect by soil treatment, F: southern crabgrass: 0 (Herbicidal rate of 5% or less (almost no effect))
Japanese bulrush
  Herbicidal effect, B: Japanese bulrush: 3 (Herbicidal rate of 40% or more and less than 70%)
Velvetleaf [23]
  Herbicidal effect by foliage application, M: velvetleaf: 5 (Herbicidal rate of 90% or more (almost completely withered))
